From patent US7357913B2, “Methods for detecting, prognosing, or monitoring a disorder by comparing relative flux rates of two or more biological molecules in vivo” (The Regents of the University of California, priority 2003, dated 2008)
Entries after “also recorded” stand apart in the source; their conditions may differ.

How the values were obtained:
[1] = tested on: mouse bone marrow cells; test: Bone marrow cell proliferation in nude mice, paclitaxel; assay type: in vivo; details: SW1573, increasing doses, 2H2O labeling 24 hours
Method: (§1) Nude mice were implanted with human SW1573 lung cancer cells (5×10^6 cells/animal), injected with varying doses of paclitaxel, and labeled with ^2H2O for 24 hours. Both vehicle (1:1 [v/v] solution of ethanol:cremephor EL) and paclitaxel stock (dissolved in 1:1 v/v solution of ethanol:cremephor EL) were diluted 1:6, prior to injection into animals, with sterile 0.1 M Phosphate Buffered Saline (PBS). Tumor cells and bone marrow cells were removed using techniques well known in the art and as described, supra.
(§2) Colonocytes were removed as follows: The colon was removed from animals and washed with 0.1 M Phosphate Buffered Saline (PBS), cut open, and incubated in PBS containing collagenase type2 (72 mg/mL) and DNase (10 μg/mL) at 37° C., gently shaken for 40 minutes. After incubation, tissue was gently scraped and cells were collected by centrifugation at 800×g for 5 minutes at 4° C. The pellet was homogenously suspended in 45% percoll in 1.6% JMEM medium. The suspension was applied on top of a 5 mL cushion of 45% (v/v) percoll in a 75% percoll gradient and centrifuged at 350×g for 30 minutes at room temperature. Colonocytes were collected and washed twice with PBS. Debris was then separated from the cell suspension using a […] filter. […] FIG. 11 depicts the results.

[2] = tested on: mouse colon cells (colonocytes); test: Colonocyte proliferation in nude mice, paclitaxel; assay type: in vivo; details: SW1573, increasing doses, 2H2O labeling 24 hours
Method: as §1, §2

[3] = tested on: human SW1573 lung cancer cells; test: Tumor cell proliferation in nude mice with SW1573 cells, paclitaxel; assay type: in vivo; details: increasing doses, 2H2O labeling 24 hours
Method: as §1, §2

[4] = tested on: liver collagen; test: Liver collagen synthesis (turnover) after griseofulvin in chow; assay type: in vivo, mouse; details: C57BL/6 mice, doses tested, 5 days (data not shown)
Method: (§3) Cell proliferation and collagen synthesis (turnover) were also assessed concurrently (i.e., simultaneously) in mice (C57BL/6 and Balb/c) fed griseofulvin. Griseofulvin is recognized as a hepatotoxin, inducing cell proliferation and porphyria. Mice were administered griseofulvin in their chow (1% w/w) for 5 days.

[5] = tested on: liver cell; test: Liver cell proliferation after griseofulvin in chow; details: C57BL/6 mice, below the no observable effect level, 5 days
Method: as §3

SMILES	bone marrow cell proliferation relative to vehicle controls [1]	colonocyte proliferation relative to vehicle controls [2]	tumor cell proliferation relative to vehicle controls [3]	liver collagen synthesis (collagen turnover) [4]	liver cell proliferation, lowest dose / levels below the NOEL [5]
CC(=O)O[C@H]1C(=O)[C@@]2(C)[C@H]([C@H](OC(=O)c3ccccc3)[C@]3(O)C[C@H](OC(=O)[C@H](O)[C@@H](NC(=O)c4ccccc4)c4ccccc4)C(C)=C1C3(C)C)[C@]1(OC(C)=O)CO[C@@H]1C[C@@H]2O [paclitaxel]	little or no effect	inhibitory effect, in a dose-dependent manner; also recorded: inhibited, in a dose-dependent manner	inhibitory effect, in a dose-dependent manner; also recorded: inhibited, in a dose-dependent manner		
COC1=CC(=O)C[C@@H](C)[C@]12Oc1c(Cl)c(OC)cc(OC)c1C2=O [griseofulvin]				no increase; also recorded: no effect	pronounced effects and dose responsiveness; also recorded: observable effect
